According to publication PMC7126831 (Bioorganic & Medicinal Chemistry, 2013):

Target: SARS-CoV PLpro (Severe acute respiratory syndrome coronavirus, UniProt P0C6U8)
Assay: biochemical
Assay type: biochemical

For `CC(C)(O)CCCC1(C)CCc2c(cc3c(c2O)C(=O)C[C@@H](c2ccc(O)c(O)c2)O3)O1` (stereo partly drawn) [Compound 1, (2S)-2-(3,4-dihydroxyphenyl)-5-hydroxy-8-(4-hydroxy-4-methylpentyl)-8-methyl-2,3,7,8-tetrahydropyrano[3,2-g]chromen-4(6H)-one], the Kinetic mode was “Mixed (4.8)”.
With `COc1cc([C@@H]2CC(=O)c3c(cc4c(c3O)CCC(C)(CCCC(C)(C)O)O4)O2)cc(O)c1OC` (stereo partly drawn) [Compound 3, (2S)-5-hydroxy-2-(5-hydroxy-3,4-dimethoxyphenyl)-8-(4-hydroxy-4-methylpentyl)-8-methyl-2,3,7,8-tetrahydropyrano[3,2-g]chromen-4(6H)-one] the Kinetic mode was “Mixed (5.0)”.
`COc1cc([C@@H]2CC(=O)c3c(cc4c(c3O)CCC(C)(CCCC(C)(C)O)O4)O2)cc(OC)c1O` (stereo partly drawn) [Compound 4, (2S)-5-hydroxy-2-(4-hydroxy-3,5-dimethoxyphenyl)-8-(4-hydroxy-4-methylpentyl)-8-methyl-2,3,7,8-tetrahydropyrano[3,2-g]chromen-4(6H)-one] was tested, and the Kinetic mode was “Mixed (13.0)”.
In the case of `COc1cc([C@H]2Oc3cc4c(c(O)c3C(=O)[C@@H]2O)CCC(C)(CCCC(C)(C)O)O4)ccc1O` (stereo partly drawn) [Compound 5, (2R,3R)-3,5-dihydroxy-2-(4-hydroxy-3-methoxyphenyl)-8-(4-hydroxy-4-methylpentyl)-8-methyl-2,3,7,8-tetrahydropyrano[3,2-g]chromen-4(6H)-one], the Kinetic mode is reported as “Mixed (3.7)”.
`COc1cc([C@H]2Oc3cc(O)c(C/C=C(\C)CCC=C(C)C)c(O)c3C(=O)[C@@H]2O)ccc1O` [Compound 6, 3′-O-methyldiplacol] was tested, and the Kinetic mode was “Mixed (6.6)”.
With `COc1ccc([C@H]2Oc3cc(O)c(C/C=C(\C)CCC=C(C)C)c(O)c3C(=O)[C@@H]2O)cc1O` [Compound 7, 4′-O-methyldiplacol] the Kinetic mode was “Mixed (6.3)”.
`COc1cc([C@@H]2CC(=O)c3c(cc(O)c(C/C=C(\C)CCC=C(C)C)c3O)O2)ccc1O` [Compound 8, 3′-O-methyldiplacone] was tested, and the Kinetic mode was “Mixed (7.1)”.
`COc1cc(C2CC(=O)c3c(cc(O)c(C/C=C(\C)CCC=C(C)C)c3O)O2)cc(OC)c1O` (centres unmarked) [Compound 12, 6-geranyl-4′,5,7-trihydroxy-3′,5′-dimethoxyflavanone] showed an IC50 of 13.9 ± 0.18 µM.
